Measurements reported in US20160311882A1, “Novel Compound for Treatment of Severe Hypoglycemia” (ELI LILLY AND COMPANY, priority 2013, published 2016).
Read-outs that look alike come from different tables or passages of the source. Non-standard residues stand in square brackets, D forms with d. Residues, ends and D or L forms follow the SMILES beside them. No end group written: not given here. Aib = CC(C)(N)C(=O)O

Key:
[1] = Chemical stability by RP-HPLC (% main peak); format: physicochemical; details: for 4° C. % Main Peak / 30° C. % Main Peak / 40° C. % Main Peak: 4 weeks
Procedure: (§1) The compound of SEQ ID NO: 2 is dissolved in H2O to a 10 mg/mL concentration (peptide content), filtered through a 0.22 μm filter (Millex, SLGV004SL), and then diluted to 1 mg/mL in Buffer P5 (10 mM Histidine, 150 mM NaCl in H20, pH 5.0) or Buffer P6 (10 mM Histidine, 150 mM NaCl in H20, pH 6.0). Each solution is transferred to three vials and autoclaved. Samples are then maintained at 4° C., 30° C. and 40° C. Samples are visually assessed at different time points for turbidity and phase separation. Stability of the compound is assessed by analytical reverse phase HPLC (RP-HPLC) on a Phenomenex Aeris Widepore, 3.6 μm, XB-C18 4.6×100 mm column (P/NO 00D-4482-E0) heated at 60° C. with a AB (A=0.05% TFA/H2O; B=0.04% TFA/acetonitrile) gradient of 5% B isocratic over 5 min, 5 to 25% B over 20 minutes, 25 to 30% B over 30 min, and 30 to 45% B over 10 min with a flow rate of 1.2 mL/min (wavelength of 220 ηm).
The compound of SEQ ID NO: 2 also maintains chemical stability at pH 5 (Buffer P5) and pH 6 (Buffer P6) when maintained at 4° C., 30° C. and 40° C. for 4 weeks.

[2] = format: physicochemical
Procedure: as §1

blood glucose levels = test: Effects of compound on blood glucose levels in C57/Bl6 male mice; format: in vivo; details: for Blood glucose levels: mean ± SEM of 4 mice
Procedure: To determine the effects of the compound of SEQ ID NO: 2 on blood glucose levels, the compound is administered to C57/B 16 mice. Three month old male C57BL6 mice (Harlan Laboratories) are used Animals are individually housed in a temperature-controlled (24° C.) facility with a 12 hour light/dark cycle, and have free access to food and water. After 1 week acclimation to the facility, mice are randomized to treatment groups (n=4/group). Test compound is formulated in Buffer 2 (see Physical stability test using Thioflavin T binding assay). On the morning of test, food is removed at 08:00 AM. Two hours after food is removed, the test compound is given subcutaneously at 0, 0.3, 1, 3 or 10 μg/kg doses. Blood glucose is measured at time 0, 15, 30, 60 and 120 minutes after test compound administration with an ACCU-CHECK® (Roche Diagnostics) glucometer. […] Results are expressed as mean±standard error mean (SEM) of 4 mice per group.
Blood glucose levels at 10 μg/kg of compound of SEQ ID NO: 2 is taken as the maximum value.

[3] = Physical stability test using Thioflavin T binding assay (fibrillation); format: physicochemical; details: 25° C.; for Thioflavin T fluorescence t = 0 h / Thioflavin T fluorescence t = 48 h / Thioflavin T fluorescence t = 96 h: 1 mg/mL, stirred 300 rpm
Procedure: Fibrillation is a common problem when glucagon is formulated in aqueous solution. To assess the level of fibrillation of the compound of the present invention, a Thioflavin T binding assay is performed.
All samples are mechanically stressed at 25° C. in a magnetic stir plate set at 300 rpm. […] Raw data is collected with Softmax Pro 5.4.1 (Molecular Devices) and imported to Excel.

[4] = target: T1, human glucagon receptor (hGR) (human, UniProt P47871 26-477); test: SPA competition against 125I-labelled glucagon on 293HEK hGR membranes, Cheng-Prusoff
T1 construct: whole, on cells; The cAMP assay used whole cells of the same line
T1 sequence (P47871 26-477): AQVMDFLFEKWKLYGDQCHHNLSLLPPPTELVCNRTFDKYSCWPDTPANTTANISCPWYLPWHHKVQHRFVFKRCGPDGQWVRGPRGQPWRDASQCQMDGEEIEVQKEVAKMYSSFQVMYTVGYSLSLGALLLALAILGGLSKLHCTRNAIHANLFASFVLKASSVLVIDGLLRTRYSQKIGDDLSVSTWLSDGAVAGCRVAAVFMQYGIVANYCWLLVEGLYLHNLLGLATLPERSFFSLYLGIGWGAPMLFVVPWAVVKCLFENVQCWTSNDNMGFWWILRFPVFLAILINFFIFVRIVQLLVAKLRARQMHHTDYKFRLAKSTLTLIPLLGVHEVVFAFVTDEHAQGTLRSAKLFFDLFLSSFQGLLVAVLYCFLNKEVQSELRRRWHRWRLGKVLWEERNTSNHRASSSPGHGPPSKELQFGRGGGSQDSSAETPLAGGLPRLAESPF
Procedure: Plates are sealed, mixed end over end, and read with a MicroBeta® scintillation counter after 12 hours of settling time at room temperature.

[5] = target: T2, mouse glucagon receptor (mGR) (mouse, UniProt Q61606 27-485); test: SPA competition against 125I-labelled glucagon on 293HEK mGR membranes, Cheng-Prusoff
T2 construct: whole, on cells; Assay used crude plasma membranes of the expressing 293HEK cells
T2 sequence (Q61606 27-485): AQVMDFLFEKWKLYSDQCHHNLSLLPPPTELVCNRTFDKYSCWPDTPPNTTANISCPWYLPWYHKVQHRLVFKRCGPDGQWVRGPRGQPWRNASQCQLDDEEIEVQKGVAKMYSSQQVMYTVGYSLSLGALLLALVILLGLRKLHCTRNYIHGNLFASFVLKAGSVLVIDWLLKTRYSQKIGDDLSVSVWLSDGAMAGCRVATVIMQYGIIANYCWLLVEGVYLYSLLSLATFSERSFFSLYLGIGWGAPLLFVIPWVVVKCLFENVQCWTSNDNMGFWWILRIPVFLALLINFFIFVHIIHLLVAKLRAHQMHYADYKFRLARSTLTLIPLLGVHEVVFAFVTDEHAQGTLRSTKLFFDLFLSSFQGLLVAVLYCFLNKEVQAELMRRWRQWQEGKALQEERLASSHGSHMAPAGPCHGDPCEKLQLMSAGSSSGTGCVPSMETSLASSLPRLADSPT

[6] = target: T1, human glucagon receptor (hGR); test: cell-based or functional assay
[7] = target: T3, human glucose-dependent insulinotropic peptide receptor (GIP-R) (human, UniProt P48546 22-466); test: SPA competition against radioiodinated GIP on CHO-S human GIP-R membranes, Cheng-Prusoff
T3 construct: whole, on cells; Assay used crude plasma membranes of the expressing CHO-S cells; also called human GIP-R; hGIP-R
T3 sequence (looked up): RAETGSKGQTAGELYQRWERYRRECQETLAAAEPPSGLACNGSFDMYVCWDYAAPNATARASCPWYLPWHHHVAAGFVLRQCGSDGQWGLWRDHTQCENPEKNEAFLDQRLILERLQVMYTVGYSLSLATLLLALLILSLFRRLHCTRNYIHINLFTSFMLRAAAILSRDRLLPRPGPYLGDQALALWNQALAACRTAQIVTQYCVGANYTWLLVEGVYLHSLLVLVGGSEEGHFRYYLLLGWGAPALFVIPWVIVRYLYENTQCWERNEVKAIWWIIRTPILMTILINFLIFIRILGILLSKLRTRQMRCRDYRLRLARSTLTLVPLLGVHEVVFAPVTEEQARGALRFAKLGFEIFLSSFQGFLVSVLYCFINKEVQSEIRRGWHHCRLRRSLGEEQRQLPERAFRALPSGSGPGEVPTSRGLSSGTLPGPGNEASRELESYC

[8] = target: T4, human glucagon-like peptide 1 receptor (hGLP-1R) (human, UniProt P43220 24-463); test: SPA competition against 125I-labelled GLP-1 amide on 293HEK hGLP-1R membranes, Cheng-Prusoff
T4 construct: whole, on cells; Assay used crude plasma membranes of the expressing 293HEK cells

[9] = Buffer 1 (20 mM Histidine, pH 6.0)
[10] = Buffer 2 (10 mM Histidine, 150 nM NaCl, pH 6.0)
[11] = Buffer 3 (10 mM Histidine, 300 mM sorbitol, pH 6.0)
[12] = Buffer 4 (10 mM Histidine, 0.02% Tween 80, pH 6.0)
[13] = Buffer 5 (10 mM Histidine, 300 mM sucrose, pH 6.0)

CC(C)C[C@H](NC(=O)[C@H](Cc1c[nH]c2ccccc12)NC(=O)[C@H](CCC(=O)O)NC(=O)[C@@H](NC(=O)[C@H](Cc1ccccc1)NC(=O)[C@H](CCC(=O)O)NC(=O)[C@H](CCC(N)=O)NC(=O)[C@H](C)NC(=O)[C@H](CCCCN)NC(=O)[C@H](CCCCN)NC(=O)C(C)(C)NC(=O)[C@H](CC(=O)O)NC(=O)[C@H](CC(C)C)NC(=O)[C@H](Cc1ccc(O)cc1)NC(=O)[C@H](CCCCN)NC(=O)[C@H](CO)NC(=O)[C@H](Cc1ccc(O)cc1)NC(=O)[C@H](CC(=O)O)NC(=O)[C@H](CO)NC(=O)[C@@H](NC(=O)[C@H](Cc1ccccc1)NC(=O)[C@@H](NC(=O)CNC(=O)[C@H](CCC(N)=O)NC(=O)[C@H](CO)NC(=O)[C@@H](N)Cc1ccc(O)cc1)[C@@H](C)O)[C@@H](C)O)C(C)C)C(=O)N[C@@H](CC(C)C)C(=O)N[C@@H](CCCCN)C(=O)N[C@H](C(=O)NCC(=O)N1CCC[C@H]1C(=O)N[C@@H](CO)C(=O)N[C@@H](CO)C(=O)NCC(=O)N[C@@H](C)C(=O)N1CCC[C@H]1C(=O)N1CCC[C@H]1C(=O)N[C@@H](CCCCN)C(=O)N[C@@H](CO)C(=O)N[C@@H](CCCCN)C(N)=O)[C@@H](C)O [SEQ ID NO: 2] (H-YSQGTFTSDYSKYLD[Aib]KKAQEFVEWLLKTGPSSGAPPKSK-NH2; N-terminus assumed)
% Main Peak Day 0 ([1]; Buffer P5 (pH 5)): 96.53% | 4° C. % Main Peak ([1]; Buffer P5 (pH 5)): 96.93% | 30° C. % Main Peak ([1]; Buffer P5 (pH 5)): 93.82% | 40° C. % Main Peak ([1]; Buffer P5 (pH 5)): 91.59% | main peak changes ([1]; Buffer P5, pH 5 at 4-wk 30° C. vs 4° C.): less than 4% | main peak changes ([1]; Buffer P5, pH 5 at 4-wk 40° C. vs 4° C.): < 6% | % Main Peak Day 0 ([1]; Buffer P6 (pH 6)): 97.00% | 4° C. % Main Peak ([1]; Buffer P6 (pH 6)): 95.89% | 30° C. % Main Peak ([1]; Buffer P6 (pH 6)): 95.17% | 40° C. % Main Peak ([1]; Buffer P6 (pH 6)): 90.57% | main peak changes ([1]; Buffer P6, pH 6 at 4-wk 30° C. vs 4° C.): < 1% | main peak changes ([1]; Buffer P6, pH 6 at 4-wk 40° C. vs 4° C.): < 6% | solubility [2]: maintains good solubility | Physical appearance ([2]; 4° C., 30° C. and 40° C., pH 5 and pH 6, over 4 weeks): clear to colorless, with no opalescences and no particles | 30° C. vs 4° C. Recovery 4 wk ([2]; Buffer P5 (pH 5.0)): 102% | 40° C. vs 4° C. Recovery 4 wk ([2]; Buffer P5 (pH 5.0)): 99% | 30° C. vs 4° C. Recovery 4 wk ([2]; Buffer P6 (pH 6.0)): 101% | 40° C. vs 4° C. Recovery 4 wk ([2]; Buffer P6 (pH 6.0)): 103% | Blood glucose levels (blood glucose levels; 0.3 μg/kg subcutaneously, 0 minutes): 140.2 ± 2.4 mg/dL | Blood glucose levels (blood glucose levels; 0.3 μg/kg subcutaneously, 15 minutes): 185.6 ± 7.5 mg/dL | Blood glucose levels (blood glucose levels; 0.3 μg/kg subcutaneously, 30 minutes): 193.3 ± 6.0 mg/dL | Blood glucose levels (blood glucose levels; 0.3 μg/kg subcutaneously, 60 minutes): 167.4 ± 6.6 mg/dL | Blood glucose levels (blood glucose levels; 0.3 μg/kg subcutaneously, 120 minutes): 147.0 ± 5.1 mg/dL | Blood glucose levels (blood glucose levels; 1 μg/kg subcutaneously, 0 minutes): 140.0 ± 2.0 mg/dL | Blood glucose levels (blood glucose levels; 1 μg/kg subcutaneously, 15 minutes): 200.6 ± 5.8 mg/dL | Blood glucose levels (blood glucose levels; 1 μg/kg subcutaneously, 30 minutes): 204.8 ± 8.9 mg/dL | Blood glucose levels (blood glucose levels; 1 μg/kg subcutaneously, 60 minutes): 161.9 ± 4.0 mg/dL | Blood glucose levels (blood glucose levels; 1 μg/kg subcutaneously, 120 minutes): 145.6 ± 3.9 mg/dL | Blood glucose levels (blood glucose levels; 3 μg/kg subcutaneously, 0 minutes): 141.5 ± 3.0 mg/dL | Blood glucose levels (blood glucose levels; 3 μg/kg subcutaneously, 15 minutes): 245.5 ± 10.0 mg/dL | Blood glucose levels (blood glucose levels; 3 μg/kg subcutaneously, 30 minutes): 265.6 ± 13.3 mg/dL | Blood glucose levels (blood glucose levels; 3 μg/kg subcutaneously, 60 minutes): 188.1 ± 9.3 mg/dL | Blood glucose levels (blood glucose levels; 3 μg/kg subcutaneously, 120 minutes): 143.9 ± 3.8 mg/dL | Blood glucose levels (blood glucose levels; 10 μg/kg subcutaneously, 0 minutes): 147.7 ± 4.4 mg/dL | Blood glucose levels (blood glucose levels; 10 μg/kg subcutaneously, 15 minutes): 252.3 ± 11.2 mg/dL | Blood glucose levels (blood glucose levels; 10 μg/kg subcutaneously, 30 minutes): 271.8 ± 13.8 mg/dL | Blood glucose levels (blood glucose levels; 10 μg/kg subcutaneously, 60 minutes): 202.1 ± 7.9 mg/dL | Blood glucose levels (blood glucose levels; 10 μg/kg subcutaneously, 120 minutes): 146.3 ± 5.5 mg/dL | ED50 (blood glucose levels; calculated on the 30 minute glucose measurements, 10 μg/kg taken as maximum, subcutaneous): 1.36 µg/kg | fibrillation as measured by the Thioflavin T binding assay ([3]; pH 6, 96 hours, mechanical stress): did not demonstrate fibrillation | Thioflavin T fluorescence t = 0 h [3, 9]: 84.5 fluorescence units | Thioflavin T fluorescence t = 48 h [3, 9]: 89.5 fluorescence units | Thioflavin T fluorescence t = 96 h [3, 9]: 98.1 fluorescence units | Thioflavin T fluorescence t = 0 h [3, 10]: 188.4 fluorescence units | Thioflavin T fluorescence t = 48 h [3, 10]: 211.6 fluorescence units | Thioflavin T fluorescence t = 96 h [3, 10]: 231.4 fluorescence units | Thioflavin T fluorescence t = 0 h [3, 11]: 83.6 fluorescence units | Thioflavin T fluorescence t = 48 h [3, 11]: 90.9 fluorescence units | Thioflavin T fluorescence t = 96 h [3, 11]: 101.7 fluorescence units | Thioflavin T fluorescence t = 0 h [3, 12]: 70.1 fluorescence units | Thioflavin T fluorescence t = 48 h [3, 12]: 76.9 fluorescence units | Thioflavin T fluorescence t = 96 h [3, 12]: 83.9 fluorescence units | Thioflavin T fluorescence t = 0 h [3, 13]: 86.3 fluorescence units | Thioflavin T fluorescence t = 48 h [3, 13]: 87.5 fluorescence units | Thioflavin T fluorescence t = 96 h [3, 13]: 98.9 fluorescence units

B1: compound of SEQ ID NO: 2 (peptide)
peptide: YSQGTFTSDYSKYLD[Aib]KKAQEFVEWLLKTGPSSGAPPKSK-NH2
modifications: also: acetate salt
notes: Synthetic peptide made on Rink amide resin; acetate salt
Ki [4]: 0.286 nM | Ki [5]: 1.82 nM | EC50, hGR stimulated cAMP functional assay (HTRF, hGR-HEK293 cells) [6]: 0.0203 nM | Ki [7]: 532 nM | Ki [8]: 2540 nM
